According to US10160705B2, “Class of HDAC inhibitors expands the renal progenitor cells population and improves the rate of recovery from acute kidney injury” (University of Pittsburgh—Of the Commonwealth System of …, priority 2011, dated 2018):
Read-outs that look alike come from different tables or passages of the source.

Key:
zebrafish embryos = test: Phenotypic screen for edema and survival in zebrafish larvae at 72 hpf
How it was run: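 Embryos (5/well in primary screen; 12–30 per group otherwise) exposed from 2 hpf in E3 medium with 0.5% DMSO, 10 μM in screen or stated concentrations, 28.5 °C for 70 h. At 72 hpf, edema scored by phenotype classification (dominant phenotype in ≥4/5 embryos in screen); survival vs 0 μM by two-tailed Fisher's exact test (p<0.05).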

renal progenitor cells = test: In situ hybridization for lhx1a expression in 10-somite embryos (renal progenitor cell expansion); assay type: in vivo; for Lhx1a expansion caused by analog treatment, 3 μM: key: effective (+); partially effective (+/−); ineffective (−); Analogs that killed all embryos at a given concentration before reaching 10 somites are listed as XX; for Lhx1a expansion caused by analog treatment, 800 nM: key: effective (+); partially effective (+/−); ineffective (−); Analogs that killed all embryos at a given concentration before reaching 10 somites are listed as XX
How it was run: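 Zebrafish embryos treated with compound, then colorimetric whole-mount in situ hybridization (65° C) for lhx1a mRNA at 10 somites. Embryos with expanded kidney field counted manually as percent of total. EC50 taken as 50% point of percent-expansion trendline; compounds also classed effective, partial or ineffective versus PTBA at matched concentration.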

kidney field = test: In situ hybridization for kidney markers (pax2a, pax8, cdh17, wt1a, slc4a4, slcl2a1); assay type: in vivo, zebrafish; conditions: 3 μM
Method: PTBA was synthesized as described below. Hydroxyurea and aphidicolin were obtained from Sigma-Aldrich.
(§1) In situ hybridization and immunocytochemistry: In situ hybridization was performed as previously described with some modifications.142 Hybridization temperature was 65° C. Embryos were blocked in 2% blocking reagent (Roche) with 5% sheep serum in MAB (100 mM maleic acid and 150 mM NaCl [pH 7.5]). Whole-mount immunocytochemistry with 1:25 mouse anti-α6F antibody (Developmental Studies Hybridoma Bank) and 1:100 Cy3 secondary antibody (Jackson ImmunoResearch) was performed as described previously.108 Embryos were embedded in JB-4 for sectioning per the manufacturer's instructions (Polysciences), sectioned at 5 μm, and mounted with Cytoseal 60 (Richard-Allan Scientific).

[1] = tested on: RA-responsive genes, cyp26a1 and cmlc2; test: In situ hybridization for RA-responsive genes cyp26a1 and cmlc2 in 18-somite embryos; assay type: in vivo, zebrafish; conditions: 3 μM
Method: as §1
HDACis are believed to lower the threshold of RA necessary to activate transcription. If PTBA treatment facilitates activation of the RA pathway, then expression of genes responsive to RA signaling should change. […] In a previous study, cmlc2 expression was assessed for RAdependent effects in 18-somite embryos (Keegan, B. R., Feldman, J. L., Begemann, G., Ingham, P. W. & Yelon, D. Retinoic acid signaling restricts the cardiac progenitor pool. Science 307, 247-249, (2005)), therefore embryos were collected at the 18-somite stage for continuity. […]

[2] = number of larvae (of 36), 3 μM from 2 hpf, scored at 72 hpf

SMILES: O=C(O)CCCSc1ccccc1 [UPHD-00020, 4-(phenylthio)butanoic acid (PTBA)]
- larvae with edemic phenotype / pericardial edema by 72 hpf (zebrafish embryos; 3 μM PTBA, 25 μM PBA, 200 nM TSA): 92%
- phenotype in initial chemical screen (zebrafish embryos; 10 μM, larvae at 72 hpf): pericardial edema
- survival to 72 hpf (zebrafish embryos; 10 μM, n=90): died before 72 hpf
- Dead (zebrafish embryos; [2]): 1
- Edemic 1 (E1) (zebrafish embryos; [2]): 13
- Edemic 2 (E2) (zebrafish embryos; [2]): 17
- Edemic 3 (E3) (zebrafish embryos; [2]): 5
- Wild-type (WT) (zebrafish embryos; [2]): 0
- Lhx1a expansion caused by analog treatment, 800 nM (renal progenitor cells; 800 nM from 2 hpf, 10-somite embryos): +/−
- Lhx1a expansion caused by analog treatment, 1.5 μM (renal progenitor cells; 1.5 μM from 2 hpf, 10-somite embryos): +
- Lhx1a expansion caused by analog treatment, 3 μM (renal progenitor cells; 3 μM from 2 hpf, 10-somite embryos): +
- responders at 1.5 µM (renal progenitor cells; Danio rerio, 1.5 μM from 2 hpf, 10-somite embryos, read-out: lhx1a expansion, percent of treated embryos): 83%
- responders at 3 µM (renal progenitor cells; Danio rerio, 3 μM PTBA added at 8 hpf after 0.5% DMSO at 5 hpf (HUA study), read-out: lhx1a expansion, percent of treated embryos): 97%
- responders at 3 µM (renal progenitor cells; Danio rerio, 3 μM PTBA together with HUA (hydroxyurea and aphidicolin), read-out: lhx1a expansion, percent of treated embryos): 13%
- responders at 3 µM (renal progenitor cells; Danio rerio, 3 μM from 2 hpf, 10-somite embryos, read-out: lhx1a expansion, percent of treated embryos): 95%
- responders at 3 µM (renal progenitor cells; Danio rerio, embryos injected with 200 pg DN-RARα mRNA, 3 μM PTBA from 5 hpf, read-out: lhx1a expansion, percent of treated embryos): 19%
- responders at 3 µM (renal progenitor cells; Danio rerio, mock-injected embryos, 3 μM PTBA from 5 hpf, read-out: lhx1a expansion, percent of treated embryos): 90%
- responders at 0.2 µM (renal progenitor cells; Danio rerio, percent of embryos with expanded kidney field, 200 nM, read-out: Expansion of Cells (including repeats* and recounts**) 200 nM): 10%
- responders at 0.4 µM (renal progenitor cells; Danio rerio, percent of embryos with expanded kidney field, 400 nM, read-out: Expansion of Cells (including repeats* and recounts**) 400 nM): 10%
- responders at 3 µM (renal progenitor cells; Danio rerio, percent of embryos with expanded kidney field, 3 μM, read-out: Expansion of Cells (including repeats* and recounts**) 3 μM): 100%
- EC50 (renal progenitor cells; Danio rerio, first pass EC50 from percent expansion (Excel trendline), average where several experiments): 1400 nM
- expansion of slc4a4 (proximal tubule) (kidney field; 48 hpf): 92%
- pax2a expression at 24 hpf (kidney field; treatment beginning at 16.5 hpf (15 somites)): no kidney field expansion
- pax2a expression at 24 hpf (kidney field; treatment initiated between 2 hpf and 14 hpf (10 somites)): expanded pax2a expression
- cmlc2 expression decreased, percent of treated embryos [1]: 100%
- cyp26a1 expression increased, percent of treated embryos [1]: 100%
